Experimental data from patent US20260226100A1, “Compound - Diagnostic Marker For Biliary Tract Cancer, Method For Detecting Enzymatic Activity, Method For Diagnosis Of Biliary Tract Cancer, Kit Comprising The Compound, Uses Of The Compound And Method For The Treatment Of Biliary Tract Cancer” (Urteste S.A., priority 2023, published 2026).
Several values for one entry are separate records, joined by “and”; a condition that tells them apart may be missing. Equal values may be shown once. *1 amine or outer side, *2 acyl side, *3 side chain or, on linkers, in order; H or OH if unused. Where no end group is shown, it is not given here. [ ]: non-standard residue; d: D form. Benzoyl(5-NH,2-NO2) = O=C(c1cc(N[*:1])ccc1[N+](=O)[O-])[*:2]; 2Abz = Nc1ccccc1C(=O)O

How the values were obtained:
Format in all cases: biochemical, human
[1] = test system: urine samples from subjects with biliary tract cancer or another neoplastic disease; assay: Selectivity of substrate cleavage in urine of patients with different cancer types; details: urine of patients with testicle, large intestine, kidney, prostate, pancreas, liver, lung, ovarian and rectum cancer
Description: The samples tested for each type of cancer were derived from 20 different patients for each of the tested cancers. The results are mean values for given cancer types.
(§1) The activity of the novel compounds according to the invention was studied in a group of 20 subjects diagnosed with biliary tract cancer using the representative compound according to the invention. […] The remaining compounds according to the invention are characterized by the analogous mechanism of action. For this purpose, the representative compound according to the invention, ABZ^1-Glu^2-Arg^3-Arg^4-Ala^5-NH2, was dissolved in dimethyl sulfoxide (at a concentration of 0.5 mg/mL) and then 50 L of the solution was mixed with 120 L of a buffer (200 mM Tris-HCl, pH 8.0) and 80 L of urine from a subject suffering from biliary tract cancer. The measurement was performed on a 96-well plate designed for measuring absorbance and each sample was analysed in triplicate at the temperature of 37° C. The duration of the measurement was 60 minutes. During the measurement, the wavelength characteristic for the chromophore (ANB-NH2) being released was monitored at the wavelength 405 nm (range 380-430 nm).
Furthermore, the dependence of the cleavage selectivity of the substrate, i.e. the compound according to the invention, on the cancer type being examined, was studied. […]

[2] = test system: proteolytic enzymes in urine from a subject suffering from biliary tract cancer; assay: Absorbance measurement of substrate hydrolysis in urine from subjects with biliary tract cancer; details: for absorbance: 405 nm, pH 8.0, 37° C., 60 minutes, triplicate
Method: as §1
The observed magnitude of increase in absorbance in time is different for each of the examined samples.
Such a result may be due to the difference in the activity as well as the amount of enzymes responsible for the enzymatic cleavage (proteolysis). […] The result indicates the absence of proteolytic enzymes specific/characteristic of biliary tract cancer.

[3] = test system: urine samples taken from healthy persons; assay: Absorbance measurement of substrate hydrolysis in urine from healthy subjects; details: for absorbance: 405 nm, pH 8.0, 37° C., 60 minutes, triplicate

## ABZ-Glu-Arg-Arg-Ala-ANB-NH2 ([2Abz]ERRA-{Benzoyl(5-NH,2-NO2)-NH2})
[1]
  cleavage of the substrate / increase in absorbance: is not subject to cleavage
[2]; all urine samples 1-13 from persons suffering from biliary tract cancer
  cleavage of the substrate: underwent cleavage
[2]; urine sample 1, biliary tract cancer
  absorbance: 0.004 and 0.002 and 0.003
[2]; urine sample 2, biliary tract cancer
  absorbance: 0.0068 and 0.0034 and 0.0053
[2]; urine sample 3, biliary tract cancer
  absorbance: 0.0035 and 0.005 and 0.0048
[2]; urine sample 4, biliary tract cancer
  absorbance: 0.004 and 0.0067 and 0.0051
[2]; urine sample 6, biliary tract cancer
  absorbance: 0.002 and 0.0021 and 0.0026
[2]; urine sample 7, biliary tract cancer
  absorbance: 0.084 and 0.092 and 0.087
[2]; urine sample 8, biliary tract cancer
  absorbance: 0.0746 and 0.0948 and 0.084
[2]; urine sample 9, biliary tract cancer
  absorbance: 0.053 and 0.0458 and 0.0497
[2]; urine sample 10, biliary tract cancer
  absorbance: 0.0436 and 0.035 and 0.041
[2]; urine sample 11, biliary tract cancer
  absorbance: 0.0051 and 0.0041 and 0.0048
[2]; urine sample 12, biliary tract cancer
  absorbance: 0.0025 and 0.0028 and 0.0032
[2]; urine sample 13, biliary tract cancer
  absorbance: 0.0046 and 0.005 and 0.0047
[3]; urine sample 14, healthy subject
  absorbance: 0.000000
[3]; urine sample 15, healthy subject
  absorbance: 0.000000
[3]; urine sample 16, healthy subject
  absorbance: 0.000000
[3]; urine sample 17, healthy subject
  absorbance: 0.000000
[3]; urine sample 18, healthy subject
  absorbance: 0.000000
[3]; urine sample 19, healthy subject
  absorbance: 0.000000
[3]; urine sample 20, healthy subject
  absorbance: 0.000000
[3]; urine sample 21, healthy subject
  absorbance: 0.000000
[3]; urine sample 22, healthy subject
  absorbance: 0.000000
[3]; urine sample 23, healthy subject
  absorbance: 0.000000
[3]; urine samples 14 to 23 from healthy persons
  increase in absorbance / hydrolysis: does not lead to an increase in absorbance
